Measured values published in ChEMBL document CHEMBL2440076, “New triarylpyrazoles as broad-spectrum anticancer agents: design, synthesis, and biological evaluation” (Eur J Med Chem, 2013).

Columns and labels:
Assay type in all cases: functional
IGROV-1 [1] = test: Growth inhibition of human IGROV1 cells assessed as cell growth at 10^-5 M after 48 hrs by sulforhodamine B assay; conditions: IGROV-1, 48 h, read-out: Activity
SF-295 [2] = test: Growth inhibition of human SF295 cells assessed as cell growth at 10^-4 M after 48 hrs by sulforhodamine B assay; conditions: SF-295, 48 h, read-out: Activity
786-0 = test: Growth inhibition of human 786-0 cells assessed as cell growth at 10^-7 M after 48 hrs by sulforhodamine B assay; conditions: 786-0, 48 h, read-out: Activity
HT-29 = test: Growth inhibition of human HT-29 cells assessed as cell growth at 10^-5 M after 48 hrs by sulforhodamine B assay; conditions: HT-29, 48 h, read-out: Activity
RPMI-8226 = test: Growth inhibition of human RPMI8226 cells assessed as cell growth at 10^-8 M after 48 hrs by sulforhodamine B assay; conditions: RPMI-8226, 48 h, read-out: Activity
IGROV-1 [3] = test: Growth inhibition of human IGROV1 cells assessed as cell growth at 10^-7 M after 48 hrs by sulforhodamine B assay; conditions: IGROV-1, 48 h, read-out: Activity
ACHN = test: Growth inhibition of human ACHN cells assessed as cell growth at 10^-8 M after 48 hrs by sulforhodamine B assay; conditions: read-out: Activity
HCT-15 = test: Growth inhibition of human HCT15 cells assessed as cell growth at 10^-4 M after 48 hrs by sulforhodamine B assay; conditions: HCT-15, 48 h, read-out: Activity
HCT-116 = test: Growth inhibition of human HCT116 cells assessed as cell growth at 10^-4 M after 48 hrs by sulforhodamine B assay; conditions: HCT-116, 48 h, read-out: Activity
MDA-MB-435 [4] = test: Growth inhibition of human MDA-MB-435 cells assessed as cell growth at 10^-7 M after 48 hrs by sulforhodamine B assay; conditions: MDA-MB-435, 48 h, read-out: Activity
M14 = test: Growth inhibition of human M14 cells assessed as cell growth at 10^-5 M after 48 hrs by sulforhodamine B assay; conditions: M14, 48 h, read-out: Activity
MDA-MB-231 = test: Growth inhibition of human MDA-MB-231 cells assessed as cell growth at 10^-6 M after 48 hrs by sulforhodamine B assay; conditions: MDA-MB-231, 48 h, read-out: Activity
T47D = test: Growth inhibition of human T47D cells assessed as cell growth at 10^-8 M after 48 hrs by sulforhodamine B assay; conditions: read-out: Activity
MDA-MB-435 [5] = test: Growth inhibition of human MDA-MB-435 cells assessed as cell growth at 10^-6 M after 48 hrs by sulforhodamine B assay; conditions: MDA-MB-435, 48 h, read-out: Activity
K562 = test: Growth inhibition of human K562 cells assessed as cell growth at 10^-6 M after 48 hrs by sulforhodamine B assay; conditions: K562, 48 h, read-out: Activity
COLO 205 [6] = test: Growth inhibition of human COLO205 cells assessed as cell growth at 10^-7 M after 48 hrs by sulforhodamine B assay; conditions: COLO 205, 48 h, read-out: Activity
TK-10 = test: Growth inhibition of human TK10 cells assessed as cell growth at 10^-4 M after 48 hrs by sulforhodamine B assay; conditions: TK-10, 48 h, read-out: Activity
SF-295 [7] = test: Growth inhibition of human SF295 cells assessed as cell growth at 10^-5 M after 48 hrs by sulforhodamine B assay; conditions: SF-295, 48 h, read-out: Activity
CCRF-CEM [8] = test: Growth inhibition of human CCRF-CEM cells assessed as cell growth at 10^-8 M after 48 hrs by sulforhodamine B assay; conditions: read-out: Activity
MDA-MB-435 [9] = test: Growth inhibition of human MDA-MB-435 cells assessed as cell growth at 10^-8 M after 48 hrs by sulforhodamine B assay; conditions: MDA-MB-435, 48 h, read-out: Activity
Malme-3M = test: Growth inhibition of human MALME-3M cells assessed as cell growth at 10^-5 M after 48 hrs by sulforhodamine B assay; conditions: read-out: Activity
MDA-MB-435 [10] = test: Growth inhibition of human MDA-MB-435 cells assessed as cell growth at 10^-5 M after 48 hrs by sulforhodamine B assay; conditions: MDA-MB-435, 48 h, read-out: Activity
COLO 205 [11] = test: Growth inhibition of human COLO205 cells assessed as cell growth at 10^-4 M after 48 hrs by sulforhodamine B assay; conditions: COLO 205, 48 h, read-out: Activity
SW-620 [12] = test: Growth inhibition of human SW620 cells assessed as cell growth at 10^-5 M after 48 hrs by sulforhodamine B assay; conditions: SW-620, 48 h, read-out: Activity
NCI-H226 [13] = test: Growth inhibition of human NCI-H226 cells assessed as cell growth at 10^-6 M after 48 hrs by sulforhodamine B assay; conditions: NCI-H226, 48 h, read-out: Activity
CCRF-CEM [14] = test: Growth inhibition of human CCRF-CEM cells assessed as cell growth at 10^-5 M after 48 hrs by sulforhodamine B assay; conditions: read-out: Activity
SW-620 [15] = test: Growth inhibition of human SW620 cells assessed as cell growth at 10^-7 M after 48 hrs by sulforhodamine B assay; conditions: SW-620, 48 h, read-out: Activity
UACC-62 = test: Growth inhibition of human UACC62 cells assessed as cell growth at 10^-4 M after 48 hrs by sulforhodamine B assay; conditions: UACC-62, 48 h, read-out: Activity
OVCAR-4 = test: Growth inhibition of human OVCAR4 cells assessed as cell growth at 10^-6 M after 48 hrs by sulforhodamine B assay; conditions: OVCAR-4, 48 h, read-out: Activity
SK-MEL-2 = test: Growth inhibition of human SK-MEL-2 cells assessed as cell growth at 10^-6 M after 48 hrs by sulforhodamine B assay; conditions: SK-MEL-2, 48 h, read-out: Activity
HL-60(TB) = test: Growth inhibition of human HL-60(TB) cells assessed as cell growth at 10^-7 M after 48 hrs by sulforhodamine B assay; conditions: HL-60, 48 h, read-out: Activity
NCI-H226 [16] = test: Growth inhibition of human NCI-H226 cells assessed as cell growth at 10^-7 M after 48 hrs by sulforhodamine B assay; conditions: NCI-H226, 48 h, read-out: Activity
UACC-257 = test: Growth inhibition of human UACC257 cells assessed as cell growth at 10^-5 M after 48 hrs by sulforhodamine B assay; conditions: UACC-257, 48 h, read-out: Activity
COLO 205 [17] = test: Growth inhibition of human COLO205 cells assessed as cell growth at 10^-8 M after 48 hrs by sulforhodamine B assay; conditions: COLO 205, 48 h, read-out: Activity
CCRF-CEM [18] = test: Growth inhibition of human CCRF-CEM cells assessed as cell growth at 10^-4 M after 48 hrs by sulforhodamine B assay; conditions: read-out: Activity
[19] = Growth inhibition of human Hs 578T cells assessed as cell growth at 10^-4 M after 48 hrs by sulforhodamine B assay; conditions: read-out: Activity
SF-268 = test: Growth inhibition of human SF268 cells assessed as cell growth at 10^-4 M after 48 hrs by sulforhodamine B assay; conditions: SF-268, 48 h, read-out: Activity
SNB-75 = test: Growth inhibition of human SNB75 cells assessed as cell growth at 10^-6 M after 48 hrs by sulforhodamine B assay; conditions: SNB-75, 48 h, read-out: Activity

`COc1cc(-c2nn(-c3cccc(NC(=O)c4ccc(N5CCOCC5)c(C(F)(F)F)c4)c3)cc2-c2ccncc2)ccc1Cl` gave a growth at 10 µM (IGROV-1 [1]) of -7%, a growth at 100 µM (SF-295 [2]) of -72% and a growth at 0.1 µM (786-0) of 100%. For the same compound, the growth at 10 µM (HT-29) was -43%, the growth at 0.01 µM (RPMI-8226) was 102% and the growth at 0.1 µM (IGROV-1 [3]) was 81%. It also gave a growth at 0.01 µM (ACHN) of 102%, a growth at 100 µM (HCT-15) of 2% and a growth at 100 µM (HCT-116) of 2%. It also gave a growth at 0.1 µM (MDA-MB-435 [4]) of -4%, a growth at 10 µM (M14) of 8% and a growth at 1 µM (MDA-MB-231) of 18%. For the same compound, the growth at 0.01 µM (T47D) was 102%, the growth at 1 µM (MDA-MB-435 [5]) was -33% and the growth at 1 µM (K562) was 11%. The growth at 0.1 µM (COLO 205 [6]) was 101%, the growth at 100 µM (TK-10) was -7% and the growth at 10 µM (SF-295 [7]) was -64%. The growth at 0.01 µM (CCRF-CEM [8]) was 94%, the growth at 0.01 µM (MDA-MB-435 [9]) was 90% and the growth at 10 µM (Malme-3M) was -14%. It also gave a growth at 10 µM (MDA-MB-435 [10]) of -36%, a growth at 100 µM (COLO 205 [11]) of -75% and a growth at 10 µM (SW-620 [12]) of 17%. For the same compound, the growth at 1 µM (NCI-H226 [13]) was 28%, the growth at 10 µM (CCRF-CEM [14]) was 5% and the growth at 0.1 µM (SW-620 [15]) was 58%. The growth at 100 µM (UACC-62) was -32%, the growth at 1 µM (OVCAR-4) was 49% and the growth at 1 µM (SK-MEL-2) was 24%. The growth at 0.1 µM (HL-60(TB)) was 73%, the growth at 0.1 µM (NCI-H226 [16]) was 87% and the growth at 10 µM (UACC-257) was -5%. For the same compound, the growth at 0.01 µM (COLO 205 [17]) was 106%, the growth at 100 µM (CCRF-CEM [18]) was 8% and the growth at 100 µM [19] was 14%. The growth at 100 µM (SF-268) was 10% and the growth at 1 µM (SNB-75) was -2%.

Work on `COc1cc(-c2nn(-c3cccc(NC(=O)c4ccccc4)c3)cc2-c2ccncc2)ccc1Cl` yielded a growth at 10 µM (IGROV-1 [1]) of 28%, a growth at 100 µM (SF-295 [2]) of -46% and a growth at 0.1 µM (786-0) of 92%. The growth at 10 µM (HT-29) was 7%, the growth at 0.01 µM (RPMI-8226) was 102% and the growth at 0.1 µM (IGROV-1 [3]) was 91%. For the same compound, the growth at 0.01 µM (ACHN) was 101%, the growth at 100 µM (HCT-15) was 12% and the growth at 100 µM (HCT-116) was 9%. The growth at 0.1 µM (MDA-MB-435 [4]) was 80%, the growth at 10 µM (M14) was 5% and the growth at 1 µM (MDA-MB-231) was 53%. For the same compound, the growth at 0.01 µM (T47D) was 97%, the growth at 1 µM (MDA-MB-435 [5]) was -28% and the growth at 1 µM (K562) was 21%. For the same compound, the growth at 0.1 µM (COLO 205 [6]) was 95%, the growth at 100 µM (TK-10) was 23% and the growth at 10 µM (SF-295 [7]) was -27%. It also gave a growth at 0.01 µM (CCRF-CEM [8]) of 97%, a growth at 0.01 µM (MDA-MB-435 [9]) of 96% and a growth at 10 µM (Malme-3M) of 8%. The growth at 10 µM (MDA-MB-435 [10]) was -48%, the growth at 100 µM (COLO 205 [11]) was -54% and the growth at 10 µM (SW-620 [12]) was 23%. The growth at 1 µM (NCI-H226 [13]) was 64%, the growth at 10 µM (CCRF-CEM [14]) was 6% and the growth at 0.1 µM (SW-620 [15]) was 92%. For the same compound, the growth at 100 µM (UACC-62) was 19%, the growth at 1 µM (OVCAR-4) was 51% and the growth at 1 µM (SK-MEL-2) was 22%. For the same compound, the growth at 0.1 µM (HL-60(TB)) was 100%, the growth at 0.1 µM (NCI-H226 [16]) was 96% and the growth at 10 µM (UACC-257) was 29%. The growth at 0.01 µM (COLO 205 [17]) was 100%, the growth at 100 µM (CCRF-CEM [18]) was 16% and the growth at 100 µM [19] was 32%. For the same compound, the growth at 100 µM (SF-268) was 14% and the growth at 1 µM (SNB-75) was 39%.
